Test results reported in article PMC10882265 (RSC Advances, 2024).
Where “and” joins values, the source holds several entries; their conditions need not be identical. Equal values may be shown once.

How the values were obtained:
human recombinant DPP-4 = human recombinant DPP-4 (Homo sapiens, UniProt P27487); test: biochemical; conditions: Inhibition of DPP-4 IC50, mean of three experiments
murine model of T2DM = conditions: oral, high fat diet + streptozotocin T2DM ref 35; cited from earlier work

Sequence of human recombinant DPP-4 (P27487 whole entry): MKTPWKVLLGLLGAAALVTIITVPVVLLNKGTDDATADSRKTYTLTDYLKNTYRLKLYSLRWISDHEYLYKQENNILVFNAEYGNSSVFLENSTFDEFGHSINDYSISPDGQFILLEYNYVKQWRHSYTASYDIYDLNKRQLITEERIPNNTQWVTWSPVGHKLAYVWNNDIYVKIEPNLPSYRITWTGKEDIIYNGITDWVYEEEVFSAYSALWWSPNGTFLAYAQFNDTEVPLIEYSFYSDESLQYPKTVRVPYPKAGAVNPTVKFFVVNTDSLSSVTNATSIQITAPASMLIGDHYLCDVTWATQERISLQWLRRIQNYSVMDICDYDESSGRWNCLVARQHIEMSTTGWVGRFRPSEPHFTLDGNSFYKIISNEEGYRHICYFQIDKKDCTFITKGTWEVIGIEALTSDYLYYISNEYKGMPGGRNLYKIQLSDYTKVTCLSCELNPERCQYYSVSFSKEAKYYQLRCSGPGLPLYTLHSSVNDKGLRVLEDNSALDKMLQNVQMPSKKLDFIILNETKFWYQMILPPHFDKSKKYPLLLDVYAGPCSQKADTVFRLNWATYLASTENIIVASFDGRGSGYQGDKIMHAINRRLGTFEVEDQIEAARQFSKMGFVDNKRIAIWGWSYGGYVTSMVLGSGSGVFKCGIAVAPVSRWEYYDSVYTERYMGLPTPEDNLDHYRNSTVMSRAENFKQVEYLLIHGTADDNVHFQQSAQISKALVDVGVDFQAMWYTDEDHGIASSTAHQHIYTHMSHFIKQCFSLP

SMILES | IC50 (human recombinant DPP-4) | antihyperglycemic effect (murine model of T2DM) | effect on cardiac and renal dysfunction (murine model of T2DM)
NC(CC(=O)NNCc1ccc(F)c(F)c1)Cc1cc(F)c(F)cc1F (stereo not shown) [LASSBio-2127 (13), 3-amino-N'-(3,4-difluorobenzyl)-4-(2,4,5-trifluorophenyl)butanehydrazide] | 2900 nM and 2930 nM |  | 
N[C@H](CC(=O)N/N=C/c1ccc(F)c(F)c1)Cc1cc(F)c(F)cc1F [LASSBio-2130 (6-S), (S,E)-3-amino-N'-(3,4-difluorobenzylidene)-4-(2,4,5-trifluorophenyl)butanehydrazide] | 44700 nM |  | 
N[C@@H](CC(=O)N1CCn2c(nnc2C(F)(F)F)C1)Cc1cc(F)c(F)cc1F [Sitagliptin (1), sitagliptin] |  | showed antihyperglycemic effects | improved cardiac and renal dysfunction
